Article PMC4216211 (Journal of Medicinal Chemistry, 2014)
“And” between values parts separate entries of the source, which are not always exact repeats. Identical values can stand only once.

Columns and labels:
rat brain TSPO = rat brain TSPO (Rattus norvegicus, UniProt P16257); type: binding; conditions: for LipE: pKi (rat) minus clogD
TSPO in rat brain cortex = conditions: read-out: IC50, inhibition of [3H]1; cited from earlier work
human leukocyte LAB TSPO = human leukocyte LAB TSPO (Homo sapiens, UniProt P30536); test: Ligand binding affinity to human leukocyte LAB TSPO
human leukocyte LAB TSPO, sequence (P30536 whole entry): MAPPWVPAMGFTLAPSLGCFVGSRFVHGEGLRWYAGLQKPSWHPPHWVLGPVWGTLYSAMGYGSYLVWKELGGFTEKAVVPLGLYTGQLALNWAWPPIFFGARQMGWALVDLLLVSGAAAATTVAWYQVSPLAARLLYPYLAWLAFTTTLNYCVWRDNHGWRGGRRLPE

human leukocyte HAB TSPO = human leukocyte HAB TSPO (Homo sapiens, UniProt P30536, T147A); test: Ligand binding affinity to human leukocyte HAB TSPO
human leukocyte HAB TSPO, sequence (P30536 whole entry T147A): as the sequence (P30536 whole entry) above, with T147A counted along it

[1] = system: human leukocyte HAB and LAB TSPO; test: Human TSPO genotype sensitivity, Ki in LAB versus HAB leukocytes; type: binding; conditions: for (LAB Ki)/(HAB Ki): genotype sensitivity, ratio of Ki; for genotype sensitivity in words: LAB versus HAB TSPO

rat brain TSPO, sequence (P16257 whole entry): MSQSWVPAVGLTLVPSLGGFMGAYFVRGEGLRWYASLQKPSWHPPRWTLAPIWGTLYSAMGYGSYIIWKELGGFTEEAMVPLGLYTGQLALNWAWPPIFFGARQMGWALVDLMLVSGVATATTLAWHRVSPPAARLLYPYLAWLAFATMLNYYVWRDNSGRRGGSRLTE

Row | SMILES | Ki (rat brain TSPO) [nM] | LipE (rat brain TSPO) | Ki (human leukocyte LAB TSPO) [nM] | Ki (human leukocyte HAB TSPO) [nM] | (LAB Ki)/(HAB Ki) [1] | other results
1 | CCN(CC)C(=O)C(C)Cc1cc(-c2ccccc2)nc2ccccc12 (stereo not shown) [10a, N,N-Diethyl-2-methyl-3-(2-phenylquinolin-4-yl)propanamide] | 2.1 ± 0.6 | 4.4 ± 0.1 |  |  |  | IC50 (TSPO in rat brain cortex): 13.7 nM
2 | CCN(CC)C(=O)CCc1cc(-c2ccccc2)nc2ccccc12 [10b, N,N-diethyl-3-(2-phenylquinolin-4-yl)propanamide] | 32 ± 11 | 2.7 ± 0.2 |  |  |  | 
3 | CCC(Cc1cc(-c2ccccc2)nc2ccccc12)C(=O)N(CC)CC (stereo not shown) [10c, N,N-diethyl-2-[(2-phenylquinolin-4-yl)methyl]butanamide] | 14 ± 6 | 2.6 ± 0.2 |  |  |  | 
4 | CN1CCC(Cc2cc(-c3ccccc3)nc3ccccc23)C1=O (stereo not shown) [10d, 1-methyl-3-[(2-phenylquinolin-4-yl)methyl]pyrrolidin-2-one] | 53 ± 22 | 3.6 ± 0.2 |  |  |  | 
5 | CC(Cc1cc(-c2ccccc2)nc2ccccc12)C(=O)N(C)C (stereo not shown) [10e, N,N,2-trimethyl-3-(2-phenylquinolin-4-yl)propanamide] | 40 ± 8 | 2.8 ± 0.1 |  |  |  | 
6 | CCN(C)C(=O)C(C)Cc1cc(-c2ccccc2)nc2ccccc12 (stereo not shown) [10f, N-ethyl-N,2-dimethyl-3-(2-phenylquinolin-4-yl)propanamide] | 9 ± 2 | 3.8 ± 0.1 |  |  |  | 
7 | CCCN(C)C(=O)C(C)Cc1cc(-c2ccccc2)nc2ccccc12 (stereo not shown) [10g, N,2-dimethyl-3-(2-phenylquinolin-4-yl)-N-propylpropanamide] | 1.2 ± 0.4 | 4.2 ± 0.1 |  |  |  | 
8 | CCCCN(C)C(=O)C(C)Cc1cc(-c2ccccc2)nc2ccccc12 (stereo not shown) [10h, N-butyl-N,2-dimethyl-3-(2-phenylquinolin-4-yl)propanamide] | 0.4 ± 0.2 | 3.9 ± 0.2 | 89 ± 3 | 1 ± 0.6 | 89 ± 50 | 
9 | CCCCCN(C)C(=O)C(C)Cc1cc(-c2ccccc2)nc2ccccc12 (stereo not shown) [10i, N,2-dimethyl-N-pentyl-3-(2-phenylquinolin-4-yl)propanamide] | 0.6 ± 0.1 | 2.6 ± 0.1 |  |  |  | 
10 | CC(Cc1cc(-c2ccccc2)nc2ccccc12)C(=O)N(C)C(C)C (stereo not shown) [10j, N,2-dimethyl-3-(2-phenylquinolin-4-yl)-N-(propan-2-yl)propanamide] | 2.9 ± 0.9 | 4.3 ± 0.1 | 973 ± 409 | 15 ± 2 | 64 ± 28 | 
11 | CC(C)CN(C)C(=O)C(C)Cc1cc(-c2ccccc2)nc2ccccc12 (stereo not shown) [10l, N,2-dimethyl-N-(2-methylpropyl)-3-(2-phenylquinolin-4-yl)propanamide] | 5 ± 2 | 3.3 ± 0.1 | 185 ± 81 | 6 ± 2 | 32 ± 18 | 
12 | CC(Cc1cc(-c2ccccc2)nc2ccccc12)C(=O)N(C)c1ccccc1 (stereo not shown) [10m, N,2-dimethyl-N-phenyl-3-(2-phenylquinolin-4-yl)propanamide] | 0.9 ± 0.2 | 3.5 ± 0.1 | 53 ± 22 | 1.9 ± 0.5 | 27 ± 14 | 
13 | CC(Cc1cc(-c2ccccc2)nc2ccccc12)C(=O)N(C)Cc1ccccc1 (stereo not shown) [10n, N-benzyl-N,2-dimethyl-3-(2-phenylquinolin-4-yl)propanamide] | 5 ± 3 | 1.8 ± 0.2 |  |  |  | 
14 | CCC(C)N(C)C(=O)c1cc2ccccc2c(-c2ccccc2Cl)n1 (stereo not shown) [compound 1, 1-(2-chlorophenyl)-N-methyl-N-(1-methylpropyl)-3-isoquinolinecarboxamide, reference compound] |  |  |  |  |  | genotype sensitivity in words [1]: low genotype sensitivity

The next lines start with results.

Row | Ki (rat brain TSPO) [nM] | LipE (rat brain TSPO) | Ki (human leukocyte LAB TSPO) [nM] | Ki (human leukocyte HAB TSPO) [nM] | (LAB Ki)/(HAB Ki) [1] | SMILES | other results
15 | 1.6 ± 0.6 | 3.6 ± 0.2 | 119 ± 56 | 4 ± 1 | 30 ± 18 | CC(Cc1cc(-c2ccccc2)nc2ccccc12)C(=O)N(C)c1ccccn1 (stereo not shown) [10o, N,2-dimethyl-3-(2-phenylquinolin-4-yl)-N-(pyridin-2-yl)propanamide] | 
16 | 10 ± 3 | 2.7 ± 0.1 |  |  |  | CC(Cc1cc(-c2ccccc2)nc2ccccc12)C(=O)N(C)c1cccnc1 (stereo not shown) [10p, N,2-dimethyl-3-(2-phenylquinolin-4-yl)-N-(pyridin-3-yl)propanamide] | 
17 | 106 ± 24 | 1.7 ± 0.1 |  |  |  | CC(Cc1cc(-c2ccccc2)nc2ccccc12)C(=O)N(C)c1ccncc1 (stereo not shown) [10q, N,2-dimethyl-3-(2-phenylquinolin-4-yl)-N-(pyridin-4-yl)propanamide] | 
18 | 0.9 ± 0.2 | 3.5 ± 0.1 |  |  |  | CC(Cc1cc(-c2ccccc2)nc2ccccc12)C(=O)N(C)c1ccccc1F (stereo not shown) [10r, N-(2-fluorophenyl)-N,2-dimethyl-3-(2-phenylquinolin-4-yl)propanamide] | 
19 | 0.8 ± 0.2 | 3.5 ± 0.1 |  |  |  | CC(Cc1cc(-c2ccccc2)nc2ccccc12)C(=O)N(C)c1cccc(F)c1 (stereo not shown) [10s, N-(3-fluorophenyl)-N,2-dimethyl-3-(2-phenylquinolin-4-yl)propanamide] | 
20 | 0.4 ± 0.1 | 4.1 ± 0.2 |  |  |  | CC(Cc1cc(-c2ccccc2)nc2ccccc12)C(=O)N(C)c1ccc(F)cc1 (stereo not shown) [10t, N-(4-fluorophenyl)-N,2-dimethyl-3-(2-phenylquinolin-4-yl)propanamide] | 
21 | 22 ± 6 | 3.2 ± 0.1 |  |  |  | CC(Cc1cc(-c2ccccc2Cl)nc2ccccc12)C(=O)N(C)C(C)C (stereo not shown) [10u, 3-[2-(2-chlorophenyl)quinolin-4-yl)-N,2-dimethyl-N-(propan-2-yl)propanamide] | 
22 | 4 ± 1 | 3.7 ± 0.1 |  |  |  | CC(Cc1cc(-c2cccc(Cl)c2)nc2ccccc12)C(=O)N(C)C(C)C (stereo not shown) [10v, 3-[2-(3-chlorophenyl)quinolin-4-yl)-N,2-dimethyl-N-(propan-2-yl)propanamide] | 
23 | 4 ± 1 | 3.6 ± 0.1 |  |  |  | CC(Cc1cc(-c2ccc(Cl)cc2)nc2ccccc12)C(=O)N(C)C(C)C (stereo not shown) [10w, 3-[2-(4-chlorophenyl)quinolin-4-yl)-N,2-dimethyl-N-(propan-2-yl)propanamide] | 
24 | 0.07 ± 0.004 | 5.42 ± 0.03 | 1.3 ± 0.2 | 0.5 ± 0.2 | 2.5 and 2.5 ± 0.9 | CC(Oc1cc(-c2ccccc2)nc2ccccc12)C(=O)N(C)c1ccccc1 (stereo not shown) [15a, N-Methyl-N-phenyl-2-[(2-phenylquinolin-4-yl)oxy]propanamide] | 
25 | 5.7 ± 0.5 | 5.29 ± 0.04 | 66 ± 22 | 3.3 ± 0.9 | 20 ± 9 | CC(Oc1ccnc2ccccc12)C(=O)N(C)c1ccccc1 (stereo not shown) [15b, N-methyl-N-phenyl-2-(quinolin-4-yloxy)propanamide] | rat TSPO affinity in words (rat brain TSPO): low nanomolar range; HAB binding affinity in words (human leukocyte HAB TSPO): low nanomolar
26 | 3.3 ± 0.6 | 5.3 ± 0.3 | 62 ± 11 | 2 ± 0.6 | 31 ± 11 | CC(Oc1ccnc(-c2ccccc2)c1)C(=O)N(C)c1ccccc1 (stereo not shown) [15c, N-methyl-N-phenyl-2-[(2-phenylpyridin-4-yl)oxy]propanamide] | rat TSPO affinity in words (rat brain TSPO): low nanomolar range; HAB binding affinity in words (human leukocyte HAB TSPO): low nanomolar
27 | 0.1 ± 0.05 | 5.9 ± 0.2 | 1.4 ± 0.5 | 1.4 ± 0.2 | 1.0 ± 0.4 | CC(Oc1cc(-c2ccccn2)nc2ccccc12)C(=O)N(C)c1ccccc1 (stereo not shown) [22a, N-Methyl-N-phenyl-2-{[2-(pyridin-2-yl)quinolin-4-yl]oxy}propanamide] | genotype sensitivity in words [1]: insensitive; Ki ([1]; read-out: human TSPO genotypes Ki, abstract, one value for the human genotypes): 1.4 nM
28 | 0.2 ± 0.03 | 5.6 ± 0.1 | 12 ± 3 | 0.9 ± 0.09 | 13 ± 4 | CC(Oc1cc(-c2cccnc2)nc2ccccc12)C(=O)N(C)c1ccccc1 (stereo not shown) [22b, N-methyl-N-phenyl-2-{[2-(pyridin-3-yl)quinolin-4-yl]oxy}propanamide] | rat TSPO affinity in words (rat brain TSPO): subnanomolar
29 | 0.22 ± 0.02 | 5.60 ± 0.04 | 7 ± 3 | 1 ± 0.5 | 7 ± 5 | CC(Oc1cc(-c2ccncc2)nc2ccccc12)C(=O)N(C)c1ccccc1 (stereo not shown) [22c, N-methyl-N-phenyl-2-{[2-(pyridin-4-yl)quinolin-4-yl]oxy}propanamide] | genotype sensitivity in words [1]: much less sensitive
30 | 0.9 ± 0.09 | 4.72 ± 0.04 | 743 ± 190 | 10 ± 2 | 76 ± 27 | CCN(CC)C(=O)[C@H](C)Cc1cc(-c2ccccc2)nc2ccccc12 [(R)-10a, (R)-N,N-Diethyl-2-methyl-3-(2-phenylquinolin-4-yl)propanamide] | fold lower affinity to HAB TSPO than to rat TSPO (human leukocyte HAB TSPO): about 10 -fold; fold lower affinity for LAB TSPO than for HAB TSPO [1]: about 76 -fold
31 | 73 ± 36 | 2.9 ± 0.1 |  |  |  | CCN(CC)C(=O)[C@@H](C)Cc1cc(-c2ccccc2)nc2ccccc12 [(S)-10a, (S)-N,N-Diethyl-2-methyl-3-(2-phenylquinolin-4-yl)propanamide] | 
32 | 0.39 ± 0.04 | 4.10 ± 0.05 | 26 ± 5 | 2.5 ± 0.6 | 10 ± 3 | CC(Sc1cc(-c2ccccc2)nc2ccccc12)C(=O)N(C)c1ccccc1 (stereo not shown) [compound 12, N-Methyl-N-phenyl-2-[(2-phenylquinolin-4-yl)sulfanyl]propanamide] | 
33 | 0.19 ± 0.01 | 5.62 ± 0.03 | 4 ± 1 | 0.44 ± 0.08 | 9 ± 3 | CC(Nc1cc(-c2ccccc2)nc2ccccc12)C(=O)N(C)c1ccccc1 (stereo not shown) [compound 14, N-Methyl-N-phenyl-2-[(2-phenylquinolin-4-yl)amino]propanamide] | 
